Experimental data from patent US20170327598A1, “SINGLE DOMAIN ANTIBODIES DIRECTED AGAINST INTRACELLULAR ANTIGENS” (SINGH MOLECULAR MEDICINE, LLC, priority 2014, published 2017).
“And” between values parts separate entries of the source, which are not always exact repeats. Equal values may be shown once. Read-outs that look alike come from different tables or passages of the source.

Key:
MCF-7 cells = assay: MTT proliferation assay, MCF-7; assay type: cell-based, human; conditions: MCF-7, 72 hours
SJSA cells = assay: Anti-proliferative effect, SJSA cells; assay type: cell-based; conditions: for Absorbance ± S.E.: 72 hr
U87 mg cells = assay: Anti-proliferative effect, U87 mg cells; assay type: cell-based; conditions: for Absorbance ± S.E. / % Inhibition: 72 hr
MDA-MB 231 cells = assay: Internalization of sdAb, anti-His tag staining, MDA-MB 231; assay type: cell-based; conditions: 18 hours
Procedure: An anti-HIV-1 Reverse Transcriptase (RT) sdAb was used as a negative control.
The slides were incubated for 18 hours after sdAb addition. The chambers were briefly rinsed with media and fixed in ice-cold methanol for 5-10 min. The chambers were then dried and stained with a fluorescent anti-His tag antibody (1:200)(Novus Biologicals, Littleton, Colo.) for 45 min at room temperature. The slides were rinsed in PBS for 5 minutes and mounted.

human STAT3 = assay: Biacore 3000 protein binding, STAT3 ligand immobilized (Example 22); conditions: sdAb as analyte
STAT5 = assay: Biacore 3000, sdAb immobilized, STAT5 analyte (Example 23); assay type: binding
[1] = system: VEGF-A production in ARPE-19 cells; assay: VEGF-A ELISA in ARPE-19 retinal cells, Experiment 1; assay type: cell-based, human; conditions: for Mean (pg VEGF-A per mL): mean of Adj. Result, Wells 1-3; for Mean (pg VEGF-A per μg protein): mean of Wells 1-3; for % Control: normalized for protein; for Adj. Result (pg VEGF-A per mL) / Result (pg VEGF-A per mL): 72 Hr; for Adj. Result (pg VEGF-A per mL): per well, adjusted for dilution; for Result (pg VEGF-A per mL): single reads, higher than top of standard curve
[2] = system: rabbit anti-llama biotinylated antibody or his-probe (H-3) biotin labeled antibody; assay: ELISA with sdAbs coated, binding of secondary antibodies (Experiments 2 and 3)
Procedure: Two assays (Experiment 2 and 3) were performed to assess the binding of the secondary antibody to the sdAbs. A similar ELISA method was utilized except the sdAbs were directly coated onto the assay plate at a concentration of 1 μg/mL. Plates were incubated overnight at 2-8° C. After the incubation, plates were washed (3×) and blocked (3% BSA in PBS) for at least one hour at room temperature.
After removal of the blocking buffer and washing (3×), the secondary antibodies, either rabbit anti-llama biotinylated antibody or his-probe (H-3) biotin labeled antibody at was then added at a 1:5,000 dilution to each well and incubated with shaking for at least one hour at room temperature. Only the rabbit anti-llama biotinylated antibody was used in Experiment 2. Both antibodies were run in parallel in Experiment 3.
After the incubation with secondary antibody, the plates were again washed (3×) and HRP at a 1:50,000 dilution was added to each well. Plates were incubated with shaking for at least one hour at room temperature. One last wash (3×) was performed followed by the addition of TMB substrate and plates were incubated at room temperature. For the anti-llama biotinylated antibody stop solution was added to halt the colorimetric reaction at 10 minutes. The his-probe (H-3) biotin labeled antibody was allowed to incubate for 20 minutes prior to stopping. The absorbance at 450 nm was measured as before.

[3] = system: MDA-MB-231 human breast cancer xenograft; conditions: for Individual Tumor Measurements: listed as anti-STAT3 bacterial VHH13
DU145 tumor xenograft = assay: DU145 xenograft study, Example 11
PANC-1 xenograft = assay: PANC-1 xenograft, sdAb alone, Gemcitabine alone or combination, Example 19; conditions: SBT-100 5 mg/kg BID, Gemcitabine 20 mg/kg, or both

Anti-STAT3 VHH13: anti-STAT3 single domain antibody, SEQ ID NO:3; bacterially produced form referred to as SBT-100
Mean Abs (MCF-7 cells; 0.39 μg/ml): 0.818 | Mean Abs (MCF-7 cells; 3.13 μg/ml): 0.689 | Mean Abs (MCF-7 cells; 6.25 μg/ml): 0.435 | % Inhibition (MCF-7 cells; 25 μg/ml): 62.1% | Mean Abs (MCF-7 cells; 25 μg/ml): 0.212 | % Inhibition (MCF-7 cells; 50 μg/ml): 89.9% | Mean Abs (MCF-7 cells; 50 μg/ml): 0.057 | % Inhibition (MCF-7 cells; 100 μg/ml): 93.2% | Mean Abs (MCF-7 cells; 100 μg/ml): 0.038 | % Inhibition (MCF-7 cells; 200 μg/ml): 92.9% | Mean Abs (MCF-7 cells; 200 μg/ml): 0.040 | Absorbance ± S.E. (SJSA cells; 25 μg/ml): 1.36 ± 0.09 | Absorbance ± S.E. (SJSA cells; 50 μg/ml): 0.90 ± 0.04 | Absorbance ± S.E. (SJSA cells; 100 μg/ml): 0.27 ± 0.01 | Absorbance ± S.E. (SJSA cells; 200 μg/ml): 0.26 ± 0.01 | IC50 (SJSA cells; SJSA cells): 51 µg/mL | Absorbance ± S.E. (U87 mg cells; 25 μg/ml): 0.687 ± 0.03 | % Inhibition (U87 mg cells; 50 μg/ml): 18% | Absorbance ± S.E. (U87 mg cells; 50 μg/ml): 0.456 ± 0.01 | % Inhibition (U87 mg cells; 100 μg/ml): 51% | Absorbance ± S.E. (U87 mg cells; 100 μg/ml): 0.271 ± 0.02 | % Inhibition (U87 mg cells; 200 μg/ml): 62% | Absorbance ± S.E. (U87 mg cells; 200 μg/ml): 0.211 ± 0.03 | IC50 (U87 mg cells; U87 mg cells): 65 µg/mL | Absorbance ± S.E. (U87 mg cells; […]): 0.702 ± 0.04 | internalization, anti-His tag staining (MDA-MB 231 cells): positive cytoplasmic staining | binding to STAT3 ligand (human STAT3): bound | binding of STAT5 (STAT5; Biacore, sdAb immobilized): bound | Result (STAT5; sdAb immobilized (STAT5-31 440 RU, anti-KRAS 140 RU, VHH13 1000 RU), STAT5 protein analyte 500 nM): Binding | % Negative Control ([1]; 0.1 μg/well, 24 Hr): 71.1% | Mean (pg VEGF-A per mL) ([1]; 0.1 μg/well, 24 Hr): 2060 pg VEGF-A per mL | Mean (pg VEGF-A per μg protein) ([1]; 0.1 μg/well, 24 Hr): 66 pg VEGF-A per μg protein | % Control ([1]; 0.1 μg/well, 24 Hr): 76.8% | Adj. Result (pg VEGF-A per mL) ([1]; 0.1 μg/well): >12,000 pg VEGF-A per mL | Result (pg VEGF-A per mL) ([1]; 0.1 μg/well): >6,000 pg VEGF-A per mL | Mean (pg VEGF-A per mL) ([1]; 0.5 μg/well, 24 Hr): 2664 pg VEGF-A per mL | Mean (pg VEGF-A per μg protein) ([1]; 0.5 μg/well, 24 Hr): 99 pg VEGF-A per μg protein | % Control ([1]; 0.5 μg/well, 24 Hr): 115.8% | Adj. Result (pg VEGF-A per mL) ([1]; 0.5 μg/well): >12,000 pg VEGF-A per mL | Result (pg VEGF-A per mL) ([1]; 0.5 μg/well): >6,000 pg VEGF-A per mL | OD450 Values ([2]; His-probe (H-3), Experiment 3, stored 1:100 dilution of sdAb): 0.360 | OD450 Values ([2]; Rabbit anti-Llama Secondary Antibody, Experiment 2, sdAb coated at 1 μg/mL): 1.313 | OD450 Values ([2]; Rabbit anti-Llama Secondary Antibody, Experiment 3, stored 1:100 dilution of sdAb): 0.363 | % mean tumor growth inhibition ([3]; 500 μg/kg bw IP QDx14): 33.64% | tumor doubling time ([3]; 500 μg/kg bw IP QDx14): 61.06 days | mean tumor size (±SE) ([3]; 500 μg/kg bw IP QDx14, day 14 of dosing): 118.86±15.94 | Individual Tumor Measurements ([3]; Group 2, 500 μg/kg bw IP QDx14, single animals, Day 1): 123.94 mm^3 and 85.93 mm^3 and 147.34 mm^3 and 115.91 mm^3 and 73.23 mm^3 | Tumor Measurements, group Mean ([3]; Group 2, Day 1): 102.61 mm^3 | Tumor Measurements, group Mean ([3]; Group 2, Day 6): 101.16 mm^3 | Tumor Measurements, group Mean ([3]; Group 2, Day 9): 112.44 mm^3 | Tumor Measurements, group Mean ([3]; Group 2, Day 12): 112.92 mm^3 | Tumor Measurements, group Mean ([3]; Group 2, Day 16): 118.86 mm^3 | Tumor Measurements, group Mean ([3]; Group 2, Day 20): 128.49 mm^3 | Individual Tumor Measurements ([3]; Group 2, single animals, Day 6): 114.91 mm^3 and 101.06 mm^3 and 148.72 mm^3 and 103.64 mm^3 and 82.59 mm^3 | Individual Tumor Measurements ([3]; Group 2, single animals, Day 9): 129.22 mm^3 and 112.60 mm^3 and 169.69 mm^3 and 108.37 mm^3 and 110.13 mm^3 | Individual Tumor Measurements ([3]; Group 2, single animals, Day 12): 176.04 mm^3 and 112.24 mm^3 and 185.08 mm^3 and 141.21 mm^3 and 91.22 mm^3 | Individual Tumor Measurements ([3]; Group 2, single animals, Day 16): 170.09 mm^3 and 139.56 mm^3 and 170.07 mm^3 and 144.51 mm^3 | Individual Tumor Measurements ([3]; Group 2, single animals, Day 20): 162.98 mm^3 and 96.43 mm^3 and 256.71 mm^3 and 119.42 mm^3 | % treatment/control (DU145 tumor xenograft; 5 mg/kg bw IP BIDx14): 74.8% | tumor doubling time (DU145 tumor xenograft; 5 mg/kg bw IP BIDx14): 18.19 days | mean tumor growth inhibition (DU145 tumor xenograft; 5 mg/kg bw IP BIDx14, end of the study): 26.6% | mean tumor size (±SE) (DU145 tumor xenograft; 5 mg/kg bw IP BIDx14, last day of dosing (Day 14)): 364.14±51.64 | mean tumor size (±S.E.) (DU145 tumor xenograft; 5 mg/kg bw IP BIDx14, termination (day 28)): 601.83±131.51 | TUMOR VOLUMES (mm^3) Mean (PANC-1 xenograft; Day 1): 107.34 mm^3 | TUMOR VOLUMES (mm^3) Mean (PANC-1 xenograft; Day 5): 145.86 mm^3 | TUMOR VOLUMES (mm^3) Mean (PANC-1 xenograft; Day 8): 149.12 mm^3 | % INHIBITION OF CONTROL (tumor growth) (PANC-1 xenograft; Day 12): 20.70% | TUMOR VOLUMES (mm^3) Mean (PANC-1 xenograft; Day 12): 188.78 mm^3 | TUMOR VOLUMES (mm^3) Mean (PANC-1 xenograft; Day 15): 233.25 mm^3 | % INHIBITION OF CONTROL (tumor growth) (PANC-1 xenograft; Day 19): 18.37% | TUMOR VOLUMES (mm^3) Mean (PANC-1 xenograft; Day 19): 332.68 mm^3 | % INHIBITION OF CONTROL (tumor growth) (PANC-1 xenograft; Day 22): 19.17% | TUMOR VOLUMES (mm^3) Mean (PANC-1 xenograft; Day 22): 390.59 mm^3
